Results reported in patent publication US9957271B2, “Substituted bicyclic aza-heterocycles and analogues as sirtuin modulators” (GlaxoSmithKline, LLC, priority 2012, dated 2018).
Like-named read-outs stand apart in the source and are kept apart here.

Target: T1, SIRT1 (Homo sapiens, UniProt Q96EB6)
T1 sequence (Q96EB6 1-747): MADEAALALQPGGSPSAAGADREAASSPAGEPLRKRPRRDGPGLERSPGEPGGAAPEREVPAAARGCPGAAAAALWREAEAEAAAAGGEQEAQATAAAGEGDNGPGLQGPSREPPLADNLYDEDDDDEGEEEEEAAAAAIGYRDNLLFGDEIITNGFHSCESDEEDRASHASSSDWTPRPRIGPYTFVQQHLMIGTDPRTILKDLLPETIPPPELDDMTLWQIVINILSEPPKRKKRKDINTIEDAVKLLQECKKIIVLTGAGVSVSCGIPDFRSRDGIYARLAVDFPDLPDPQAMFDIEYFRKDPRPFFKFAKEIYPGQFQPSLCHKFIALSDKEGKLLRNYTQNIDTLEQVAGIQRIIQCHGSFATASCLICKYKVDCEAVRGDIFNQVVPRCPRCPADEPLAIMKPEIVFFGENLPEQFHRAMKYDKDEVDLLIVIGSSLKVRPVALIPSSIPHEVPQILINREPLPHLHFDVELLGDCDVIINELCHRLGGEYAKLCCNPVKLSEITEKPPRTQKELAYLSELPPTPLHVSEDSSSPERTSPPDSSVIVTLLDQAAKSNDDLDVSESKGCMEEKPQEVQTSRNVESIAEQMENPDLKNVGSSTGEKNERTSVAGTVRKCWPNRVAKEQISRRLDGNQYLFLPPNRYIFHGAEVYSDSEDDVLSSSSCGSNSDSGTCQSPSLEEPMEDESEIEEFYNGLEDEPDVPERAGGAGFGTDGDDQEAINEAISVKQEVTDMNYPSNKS
Assay: TAMRA based mass spectrometry assay of SIRT1 activity
Assay type: biochemical
Conditions: for Emax: read-out: TAMRA % Fold Act
How it was run: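 Deacetylation of a biotinylated, TAMRA-tagged p53-based peptide (0.5 μM) by 10 nM His-tagged SIRT1 with 120 μM βNAD+, 25 °C for 25 min, pH 8 Tris-acetate buffer, across a compound concentration range. Quenched by formic acid and read by mass spec as product peptide or OAADPR; activity relative to DMSO reactions, nicotinamide defining maximal inhibition.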

[1] = concentration of test compound giving 150% activation of SIRT1, TAMRA peptide substrate
[2] = percent maximum fold activation of SIRT1, TAMRA peptide substrate
[3] = TAMRA assay, concentration giving 150% activation of SIRT1
[4] = TAMRA assay, percent maximum fold activation
[5] = TAMRA peptide substrate, concentration giving 150% activation of SIRT1
[6] = TAMRA peptide substrate, percent maximum fold activation

Structure (SMILES) | TAMRA EC1.5 (μM) [3] | Emax [4] [%] | TAMRA EC1.5 [5] | Emax [6] [%] | other results
O=C(Nc1ncc(N2CCOCC2)s1)c1cnc2ccc(-c3ccccc3C(F)(F)F)nn12 [Compound 151] | – | – | – | – | TAMRA EC1.5 (μM) [1]: A (EC1.5<1 μM); Emax [2]: ≥ 350%
O=C(Nc1cccc(CN2CCOCC2)n1)c1cnc2ccc(-c3cc(F)cc(F)c3)nn12 [Compound 45] | – | – | – | – | TAMRA EC1.5 (μM) [1]: B (EC1.5 1-25 μM); Emax [2]: < 350%
O=C(Nc1cnn2ccc(-c3ccccc3OC(F)(F)F)nc12)c1nccs1 [Compound 781] | B (EC1.5 1-25 μM) | ≥ 350 | – | – | –
Cc1cccc(C(=O)Nc2cnn3ccc(-c4ccccc4C(F)(F)F)nc23)n1 [Compound 522] | – | – | A (EC1.5<1 μM) | ≥ 350 | –
Cc1nc2c(OC[C@H]3COC(C)(C)O3)cc(-c3ccccc3C(F)(F)F)nn2c1C(=O)Nc1cccnn1 [Compound 745] | A (EC1.5<1 μM) | ≥ 350 | – | – | –
Cc1nc(C(=O)Nc2cnc3ccc(-c4ccccc4F)nn23)cs1 [Compound 299] | B (EC1.5 1-25 μM) | < 350 | – | – | –
O=C(Nc1cnccn1)c1cnc2ccc(-c3cccc(Cl)c3F)nn12 [Compound 157] | – | – | – | – | TAMRA EC1.5 (μM) [1]: B (EC1.5 1-25 μM); Emax [2]: < 350%
Cn1ccnc1C(=O)Nc1cnc2ccc(-c3ccccc3C(F)(F)F)nn12 [Compound 91] | – | – | – | – | TAMRA EC1.5 (μM) [1]: B (EC1.5 1-25 μM); Emax [2]: ≥ 350%
O=C(Nc1cnccn1)c1cnc2ccc(-c3ccccc3OC(F)(F)F)nn12 [Compound 362] | A (EC1.5<1 μM) | ≥ 350 | – | – | –
O=C(Nc1cnc2ccc(-c3ccccc3C(F)(F)F)nn12)c1cccc(-n2cnnc2)n1 [Compound 438] | – | – | A (EC1.5<1 μM) | ≥ 350 | –
O=C(Nc1ncccn1)c1ncn2ccc(-c3ccccc3C(F)(F)F)nc12 [Compound 453] | – | – | B (EC1.5 1-25 μM) | ≥ 350 | –
Cc1cncc(NC(=O)c2c(C)nn3ccc(-c4ccccc4C(F)(F)F)nc23)c1 [Compound 638] | A (EC1.5<1 μM) | ≥ 350 | – | – | –
Cc1nn2ccc(-c3ccccc3C(F)(F)F)nc2c1C(=O)Nc1nccs1 [Compound 709] | A (EC1.5<1 μM) | ≥ 350 | – | – | –
CCOc1ccc(NC(=O)c2c(C)nc3ccc(-c4cccc(C)c4)nn23)nn1 [Compound 760] | A (EC1.5<1 μM) | < 350 | – | – | –
COc1ccc(NC(=O)c2c(C)nn3ccc(-c4ccccc4C(F)(F)F)nc23)nn1 [Compound 696] | A (EC1.5<1 μM) | ≥ 350 | – | – | –
Cc1cnc(C(=O)Nc2cnc3ccc(-c4ccccc4C(F)(F)F)nn23)s1 [Compound 123] | – | – | – | – | TAMRA EC1.5 (μM) [1]: A (EC1.5<1 μM); Emax [2]: ≥ 350%

Structure (SMILES) | TAMRA EC1.5 (μM) [3] | Emax [4] [%] | TAMRA EC1.5 [5] | Emax [6] [%] | other results
Cc1cc(NC(=O)c2cnc3c(C)cc(-c4ccccc4C(F)(F)F)nn23)cc(C)n1 [Compound 528] | – | – | A (EC1.5<1 μM) | ≥ 350 | –
Cc1cccc(NC(=O)c2cnn3ccc(-c4ccccc4OC(F)(F)F)nc23)n1 [Compound 617] | A (EC1.5<1 μM) | ≥ 350 | – | – | –
Cc1nn2ccc(-c3ccccc3C(F)(F)F)nc2c1NC(=O)c1ncccn1 [Compound 570] | – | – | B (EC1.5 1-25 μM) | < 350 | –
O=C(Nc1ncc(F)cc1F)c1cnn2ccc(-c3ccccc3OC(F)(F)F)nc12 [Compound 690] | C (EC1.5>25 μM) | < 350 | – | – | –
COc1cccc(C(=O)Nc2c(C)nn3ccc(-c4ccccc4C(F)(F)F)nc23)n1 [Compound 576] | – | – | C (EC1.5>25 μM) | < 350 | –
O=C(Nc1ccccn1)c1cnc2ccc(-c3ccccc3OCC(O)CO)nn12 (stereo not drawn) [Compound 368] | B (EC1.5 1-25 μM) | ≥ 350 | – | – | –
Cc1cc(-c2ccccc2C(F)(F)F)nn2c(NC(=O)c3nccs3)cnc12 [Compound 414] | – | – | A (EC1.5<1 μM) | ≥ 350 | –
O=C(Nc1cc(N2CCOCC2)ccn1)c1cnc2ccc(-c3ccccc3C(F)(F)F)nn12 [Compound 176] | – | – | – | – | TAMRA EC1.5 (μM) [1]: A (EC1.5<1 μM); Emax [2]: < 350%
O=C(Nc1cccc(N2CCCC2)n1)c1cnc2ccc(-c3ccccc3C(F)F)nn12 [Compound 37] | – | – | – | – | TAMRA EC1.5 (μM) [1]: A (EC1.5<1 μM); Emax [2]: ≥ 350%
Cc1nc2ccc(-c3cccc(OC[C@H](O)CO)c3)nn2c1C(=O)Nc1ccncc1F [Compound 822] | A (EC1.5<1 μM) | < 350 | – | – | –
Cc1cc(C)c(NC(=O)c2cnn3ccc(-c4ccccc4OC(F)(F)F)nc23)cn1 [Compound 661] | B (EC1.5 1-25 μM) | < 350 | – | – | –
Cn1cc(-c2ccc3ncc(C(=O)Nc4ccnc(N5CCCC5)c4)n3n2)cn1 [Compound 57] | – | – | – | – | TAMRA EC1.5 (μM) [1]: C (EC1.5>25 μM); Emax [2]: < 350%
Cc1nc2c(C)cc(-c3ccccc3OC(F)(F)F)nn2c1C(=O)Nc1ccncc1F [Compound 494] | – | – | A (EC1.5<1 μM) | ≥ 350 | –
Cc1cc(OCC(F)(F)F)nc(NC(=O)c2cnc3ccc(-c4ccccc4C(F)(F)F)nn23)n1 [Compound 310] | A (EC1.5<1 μM) | ≥ 350 | – | – | –
O=C(Nc1ccnc(N2CCC2)c1)c1cnc2ccc(-c3cccc(F)c3Cl)nn12 [Compound 179] | – | – | – | – | TAMRA EC1.5 (μM) [1]: A (EC1.5<1 μM); Emax [2]: < 350%
Cc1cccc(NC(=O)c2cnc3ccc(-c4ccccc4OC[C@H](O)CO)nn23)n1 [Compound 804] | A (EC1.5<1 μM) | ≥ 350 | – | – | –

The next lines start with results.

TAMRA EC1.5 (μM) [3] | Emax [4] [%] | TAMRA EC1.5 [5] | Emax [6] [%] | Structure (SMILES) | other results
A (EC1.5<1 μM) | ≥ 350 | – | – | COc1cc(NC(=O)c2c(C)nc3ccc(-c4ccccc4C(F)(F)F)nn23)ncn1 [Compound 602] | –
A (EC1.5<1 μM) | ≥ 350 | – | – | O=C(Nc1cnc2ccc(-c3ccccc3OC(F)(F)F)nn12)c1ccccn1 [Compound 312] | –
– | – | A (EC1.5<1 μM) | ≥ 350 | Cc1cccc(NC(=O)c2c(C)nc3c(C)cc(-c4ccccc4C(F)(F)F)nn23)n1 [Compound 458] | –
B (EC1.5 1-25 μM) | ≥ 350 | – | – | Cc1nc2ccc(-c3ccccc3Cl)nn2c1C(=O)Nc1cccnn1 [Compound 715] | –
– | – | A (EC1.5<1 μM) | ≥ 350 | Cc1nc2ccc(-c3ccccc3C(F)(F)F)nn2c1C(=O)Nc1ccccn1 [Compound 498] | –
– | – | A (EC1.5<1 μM) | ≥ 350 | O=C(Nc1cccc(OC(CO)CO)n1)c1cnc2ccc(-c3ccccc3C(F)(F)F)nn12 [Compound 423, N-(6-((1,3-dihydroxypropan-2-yl)oxy)pyridin-2-yl)-6-(2-(trifluoromethyl)phenyl)imidazo[1,2-b]pyridazine-3-carboxamide] | –
A (EC1.5<1 μM) | ≥ 350 | – | – | COc1nccc(NC(=O)c2c(C)nn3ccc(-c4ccccc4C(F)(F)F)nc23)n1 [Compound 793, N-(2-methoxypyrimidin-4-yl)-2-methyl-5-(2-(trifluoromethyl)phenyl)pyrazolo[1,5-a]pyrimidine-3-carboxamide] | –
– | – | A (EC1.5<1 μM) | ≥ 350 | Cc1cc(-c2ccccc2C(F)(F)F)nn2c(C(=O)Nc3ccncn3)cnc12 [Compound 515] | –
A (EC1.5<1 μM) | ≥ 350 | – | – | Cc1cc(C)nc(NC(=O)c2cnc3ccc(-c4ccccc4C(F)(F)F)nn23)n1 [Compound 247] | –
– | – | A (EC1.5<1 μM) | ≥ 350 | COc1nccc(NC(=O)c2c(C)nc3ccc(-c4ccccc4C(F)(F)F)nn23)n1 [Compound 476] | –
